pIC50: −log10 of the molar value.
Experiments:
SK-MEL-5 = test: Melanoma SK-MEL-5 cell line MDS Pharma Services Proliferation Assay; type: functional, cell-based, Homo sapiens
[1] = biological target: T1, Calcium/calmodulin-dependent protein kinase type IV (Homo sapiens) (UniProt Q16566); test: CaMKIV (h) Upstate kinase activity assay; settings: Compound concentration 10.0 uM
T1 sequence (whole entry): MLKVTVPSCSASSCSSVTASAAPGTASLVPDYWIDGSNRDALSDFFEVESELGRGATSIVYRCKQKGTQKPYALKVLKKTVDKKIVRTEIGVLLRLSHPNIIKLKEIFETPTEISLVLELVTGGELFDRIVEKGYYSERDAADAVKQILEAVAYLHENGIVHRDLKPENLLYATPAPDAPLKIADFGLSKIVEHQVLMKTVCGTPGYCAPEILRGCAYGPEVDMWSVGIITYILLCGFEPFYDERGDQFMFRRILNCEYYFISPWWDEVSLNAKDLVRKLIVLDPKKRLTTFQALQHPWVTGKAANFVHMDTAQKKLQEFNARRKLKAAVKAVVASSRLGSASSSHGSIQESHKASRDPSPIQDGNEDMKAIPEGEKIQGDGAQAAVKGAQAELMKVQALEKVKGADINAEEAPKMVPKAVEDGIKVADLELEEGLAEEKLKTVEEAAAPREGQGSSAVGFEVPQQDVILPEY

[2] = biological target: Fibroblast growth factor receptor 3 (Homo sapiens) (UniProt P22607); test: FGFR3 (h) Upstate kinase activity assay; settings: Compound concentration 10.0 uM
[3] = biological target: Cyclin-dependent kinase 2/cyclin E (Homo sapiens) (UniProt P24864+P24941+O96020); test: CDK2/ cyclin E (h) Upstate kinase activity assay; type: protein-complex assay; settings: Compound concentration 10.0 uM
[4] = biological target: T2, Cytoplasmic tyrosine-protein kinase BMX (Homo sapiens) (UniProt P51813); test: Bmx (h) Upstate kinase activity assay; settings: Compound concentration 10.0 uM
T2 sequence (whole entry): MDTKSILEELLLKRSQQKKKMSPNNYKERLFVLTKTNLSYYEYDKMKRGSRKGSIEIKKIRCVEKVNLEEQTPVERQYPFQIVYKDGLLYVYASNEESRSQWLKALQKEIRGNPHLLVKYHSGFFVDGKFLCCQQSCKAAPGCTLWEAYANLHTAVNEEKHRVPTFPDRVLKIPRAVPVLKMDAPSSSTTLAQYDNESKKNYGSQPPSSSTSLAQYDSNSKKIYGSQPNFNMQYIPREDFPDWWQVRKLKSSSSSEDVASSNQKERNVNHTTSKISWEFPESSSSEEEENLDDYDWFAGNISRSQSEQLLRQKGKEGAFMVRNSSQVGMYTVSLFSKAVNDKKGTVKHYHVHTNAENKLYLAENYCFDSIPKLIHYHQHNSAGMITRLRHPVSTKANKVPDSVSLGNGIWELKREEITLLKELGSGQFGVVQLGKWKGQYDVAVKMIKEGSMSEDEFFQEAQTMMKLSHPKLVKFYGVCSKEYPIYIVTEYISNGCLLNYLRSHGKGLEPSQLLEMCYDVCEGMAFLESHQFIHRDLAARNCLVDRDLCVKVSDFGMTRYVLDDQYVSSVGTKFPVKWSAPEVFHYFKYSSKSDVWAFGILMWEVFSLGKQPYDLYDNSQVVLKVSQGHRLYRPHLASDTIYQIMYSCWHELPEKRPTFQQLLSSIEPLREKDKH

[5] = biological target: Insulin-like growth factor 1 receptor (Homo sapiens) (UniProt P08069); test: IGF-1R (h) Upstate kinase activity assay; settings: Compound concentration 10.0 uM
SK-N-MC = test: Neuroepithelioma SK-N-MC cell line MDS Pharma Services Proliferation Assay; type: functional, cell-based, Homo sapiens
[6] = biological target: Sigma intracellular receptor 2 (Homo sapiens) (UniProt Q5BJF2); settings: Compound concentration 10.0 uM
[7] = biological target: High affinity nerve growth factor receptor (Homo sapiens) (UniProt P04629); settings: Compound concentration 10.0 uM
[8] = biological target: T3, Tyrosine-protein kinase ZAP-70 (Homo sapiens) (UniProt P43403); test: ZAP-70 (h) Upstate kinase activity assay; settings: Compound concentration 10.0 uM
T3 sequence (whole entry): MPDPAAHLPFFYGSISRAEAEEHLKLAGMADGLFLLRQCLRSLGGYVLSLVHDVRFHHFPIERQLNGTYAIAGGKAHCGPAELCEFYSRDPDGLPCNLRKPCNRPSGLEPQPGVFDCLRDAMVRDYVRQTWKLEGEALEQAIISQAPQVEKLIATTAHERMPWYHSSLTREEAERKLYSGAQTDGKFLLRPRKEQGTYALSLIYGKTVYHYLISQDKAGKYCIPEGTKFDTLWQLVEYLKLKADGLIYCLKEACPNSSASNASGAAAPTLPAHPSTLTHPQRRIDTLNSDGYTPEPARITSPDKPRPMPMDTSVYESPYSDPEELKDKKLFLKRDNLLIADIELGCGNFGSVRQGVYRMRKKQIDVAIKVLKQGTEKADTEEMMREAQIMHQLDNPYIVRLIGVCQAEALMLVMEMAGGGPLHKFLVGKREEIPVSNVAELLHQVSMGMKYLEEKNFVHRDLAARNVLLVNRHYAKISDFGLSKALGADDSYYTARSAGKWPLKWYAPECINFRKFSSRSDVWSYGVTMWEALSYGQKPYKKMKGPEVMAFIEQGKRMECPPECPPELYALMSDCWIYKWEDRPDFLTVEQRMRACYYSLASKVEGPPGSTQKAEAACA

[9] = biological target: T4, Aurora kinase A (Homo sapiens) (UniProt O14965); test: Aurora A (h) Upstate kinase activity assay; settings: Compound concentration 10.0 uM
T4 sequence (whole entry): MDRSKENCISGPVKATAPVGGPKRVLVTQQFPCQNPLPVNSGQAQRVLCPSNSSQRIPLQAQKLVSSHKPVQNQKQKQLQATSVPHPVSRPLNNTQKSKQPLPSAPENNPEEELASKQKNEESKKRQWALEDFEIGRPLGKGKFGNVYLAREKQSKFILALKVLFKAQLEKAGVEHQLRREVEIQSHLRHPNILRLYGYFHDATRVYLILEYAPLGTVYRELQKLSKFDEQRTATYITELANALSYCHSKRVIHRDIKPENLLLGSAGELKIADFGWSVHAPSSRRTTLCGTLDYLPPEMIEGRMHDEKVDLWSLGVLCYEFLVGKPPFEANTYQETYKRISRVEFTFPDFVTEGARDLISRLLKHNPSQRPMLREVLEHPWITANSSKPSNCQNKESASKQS

[10] = biological target: Calcium/calmodulin-dependent protein kinase type II subunit beta (Homo sapiens) (UniProt Q13554); settings: Compound concentration 100.0 nM
[11] = tested on: Epidermal growth factor receptor (Homo sapiens), P00533 [UNDEFINED MUTATION]; settings: Compound concentration 100.0 nM
Sequence of Epidermal growth factor receptor (Homo sapiens), P00533 [UNDEFINED MUTATION] (P00533 whole entry, looked up, change not shown): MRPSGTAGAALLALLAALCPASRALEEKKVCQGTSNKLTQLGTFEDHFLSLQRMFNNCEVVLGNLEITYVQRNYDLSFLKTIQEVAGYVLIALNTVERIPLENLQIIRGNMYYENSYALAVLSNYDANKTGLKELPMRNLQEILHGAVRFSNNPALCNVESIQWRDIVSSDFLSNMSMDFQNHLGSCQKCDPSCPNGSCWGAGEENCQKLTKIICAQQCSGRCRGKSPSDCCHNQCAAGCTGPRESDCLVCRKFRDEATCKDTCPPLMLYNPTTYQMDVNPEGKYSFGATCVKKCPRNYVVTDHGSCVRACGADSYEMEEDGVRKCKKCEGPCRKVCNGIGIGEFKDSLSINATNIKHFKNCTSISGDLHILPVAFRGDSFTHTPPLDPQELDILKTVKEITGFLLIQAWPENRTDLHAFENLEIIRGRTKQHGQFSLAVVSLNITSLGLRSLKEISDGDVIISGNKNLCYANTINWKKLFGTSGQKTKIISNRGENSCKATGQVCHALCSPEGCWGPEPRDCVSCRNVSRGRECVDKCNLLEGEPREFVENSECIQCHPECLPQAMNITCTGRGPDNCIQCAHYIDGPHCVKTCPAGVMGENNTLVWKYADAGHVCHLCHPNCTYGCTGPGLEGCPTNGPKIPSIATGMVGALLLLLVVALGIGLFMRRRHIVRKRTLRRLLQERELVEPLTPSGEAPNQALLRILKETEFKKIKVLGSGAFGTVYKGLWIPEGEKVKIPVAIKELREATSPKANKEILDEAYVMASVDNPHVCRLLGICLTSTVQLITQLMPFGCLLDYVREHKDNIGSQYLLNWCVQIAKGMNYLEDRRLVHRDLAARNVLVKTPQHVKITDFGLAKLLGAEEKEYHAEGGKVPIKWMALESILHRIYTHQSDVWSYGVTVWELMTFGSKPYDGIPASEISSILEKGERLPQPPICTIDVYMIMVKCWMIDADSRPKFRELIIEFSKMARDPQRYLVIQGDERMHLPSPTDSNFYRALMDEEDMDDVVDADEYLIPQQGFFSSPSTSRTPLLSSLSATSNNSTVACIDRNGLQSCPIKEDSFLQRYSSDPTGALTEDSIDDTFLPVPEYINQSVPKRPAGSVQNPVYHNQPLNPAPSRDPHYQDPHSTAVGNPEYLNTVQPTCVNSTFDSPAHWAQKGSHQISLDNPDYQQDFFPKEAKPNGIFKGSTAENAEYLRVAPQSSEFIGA

Sequence of Fibroblast growth factor receptor 3 (Homo sapiens) (P22607 23-806 limits assumed): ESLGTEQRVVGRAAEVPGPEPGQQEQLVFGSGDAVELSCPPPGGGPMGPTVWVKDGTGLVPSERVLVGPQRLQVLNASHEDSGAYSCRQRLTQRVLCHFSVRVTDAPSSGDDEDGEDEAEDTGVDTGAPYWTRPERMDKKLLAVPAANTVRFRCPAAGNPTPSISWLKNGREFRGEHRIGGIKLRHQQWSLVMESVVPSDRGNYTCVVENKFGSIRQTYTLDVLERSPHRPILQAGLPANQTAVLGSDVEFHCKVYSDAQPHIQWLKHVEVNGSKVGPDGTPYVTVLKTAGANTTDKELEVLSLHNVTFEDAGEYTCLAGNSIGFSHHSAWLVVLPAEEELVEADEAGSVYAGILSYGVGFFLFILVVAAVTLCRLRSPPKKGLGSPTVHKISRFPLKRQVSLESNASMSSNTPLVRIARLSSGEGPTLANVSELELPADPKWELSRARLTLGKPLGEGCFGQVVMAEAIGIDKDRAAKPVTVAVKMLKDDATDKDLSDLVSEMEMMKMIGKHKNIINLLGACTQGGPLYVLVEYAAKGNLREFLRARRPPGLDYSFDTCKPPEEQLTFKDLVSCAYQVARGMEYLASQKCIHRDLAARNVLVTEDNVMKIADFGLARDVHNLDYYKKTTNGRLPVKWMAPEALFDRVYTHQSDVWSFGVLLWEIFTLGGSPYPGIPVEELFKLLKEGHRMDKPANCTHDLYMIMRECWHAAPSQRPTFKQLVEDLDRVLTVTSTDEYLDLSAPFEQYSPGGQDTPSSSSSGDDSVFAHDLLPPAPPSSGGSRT
Sequence of Sigma intracellular receptor 2 (Homo sapiens) (Q5BJF2 whole entry): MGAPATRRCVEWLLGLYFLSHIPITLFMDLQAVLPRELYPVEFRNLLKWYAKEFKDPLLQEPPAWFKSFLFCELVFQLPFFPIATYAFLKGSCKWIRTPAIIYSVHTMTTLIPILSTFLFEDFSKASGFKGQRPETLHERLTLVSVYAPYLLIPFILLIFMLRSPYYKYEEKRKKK
Sequence of High affinity nerve growth factor receptor (Homo sapiens) (P04629 33-796 limits assumed): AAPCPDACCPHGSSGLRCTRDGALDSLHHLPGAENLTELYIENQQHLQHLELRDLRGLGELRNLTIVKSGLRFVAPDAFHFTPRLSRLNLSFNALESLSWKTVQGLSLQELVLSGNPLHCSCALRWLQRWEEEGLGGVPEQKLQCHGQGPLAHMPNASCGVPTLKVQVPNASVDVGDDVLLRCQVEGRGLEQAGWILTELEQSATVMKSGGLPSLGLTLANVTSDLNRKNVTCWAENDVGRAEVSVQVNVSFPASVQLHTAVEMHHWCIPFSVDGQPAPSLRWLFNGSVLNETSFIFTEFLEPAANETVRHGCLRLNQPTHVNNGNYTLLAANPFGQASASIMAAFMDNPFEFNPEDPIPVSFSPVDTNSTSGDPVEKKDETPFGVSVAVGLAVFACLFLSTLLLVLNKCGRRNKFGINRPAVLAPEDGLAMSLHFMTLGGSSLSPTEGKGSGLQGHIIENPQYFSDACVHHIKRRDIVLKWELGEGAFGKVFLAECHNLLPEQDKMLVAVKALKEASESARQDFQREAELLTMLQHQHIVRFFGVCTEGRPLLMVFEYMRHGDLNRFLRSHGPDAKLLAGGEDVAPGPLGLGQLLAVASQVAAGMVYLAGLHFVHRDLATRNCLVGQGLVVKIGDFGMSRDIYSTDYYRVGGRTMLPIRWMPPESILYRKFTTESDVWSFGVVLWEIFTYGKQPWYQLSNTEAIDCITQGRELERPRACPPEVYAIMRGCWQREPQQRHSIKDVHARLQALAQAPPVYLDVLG
Sequence of Calcium/calmodulin-dependent protein kinase type II subunit beta (Homo sapiens) (Q13554 whole entry): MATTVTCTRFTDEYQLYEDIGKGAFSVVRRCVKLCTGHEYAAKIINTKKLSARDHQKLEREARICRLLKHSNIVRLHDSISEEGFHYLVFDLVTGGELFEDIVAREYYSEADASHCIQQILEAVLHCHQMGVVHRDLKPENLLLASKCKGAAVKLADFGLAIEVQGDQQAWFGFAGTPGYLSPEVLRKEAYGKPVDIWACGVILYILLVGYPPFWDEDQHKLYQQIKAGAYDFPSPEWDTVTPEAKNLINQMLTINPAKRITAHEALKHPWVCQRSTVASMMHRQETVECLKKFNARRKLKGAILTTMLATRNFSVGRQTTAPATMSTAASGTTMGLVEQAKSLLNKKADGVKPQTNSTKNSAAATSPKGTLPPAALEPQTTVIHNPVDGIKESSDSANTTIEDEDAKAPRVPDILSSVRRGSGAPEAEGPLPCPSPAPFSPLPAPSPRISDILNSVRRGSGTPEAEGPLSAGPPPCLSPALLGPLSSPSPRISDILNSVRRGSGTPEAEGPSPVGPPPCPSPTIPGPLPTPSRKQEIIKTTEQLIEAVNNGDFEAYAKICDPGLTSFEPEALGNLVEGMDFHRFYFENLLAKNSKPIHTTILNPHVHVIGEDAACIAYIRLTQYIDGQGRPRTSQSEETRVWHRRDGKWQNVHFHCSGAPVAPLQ
Sequence of Insulin-like growth factor 1 receptor (Homo sapiens) (P08069 31-736 limits assumed): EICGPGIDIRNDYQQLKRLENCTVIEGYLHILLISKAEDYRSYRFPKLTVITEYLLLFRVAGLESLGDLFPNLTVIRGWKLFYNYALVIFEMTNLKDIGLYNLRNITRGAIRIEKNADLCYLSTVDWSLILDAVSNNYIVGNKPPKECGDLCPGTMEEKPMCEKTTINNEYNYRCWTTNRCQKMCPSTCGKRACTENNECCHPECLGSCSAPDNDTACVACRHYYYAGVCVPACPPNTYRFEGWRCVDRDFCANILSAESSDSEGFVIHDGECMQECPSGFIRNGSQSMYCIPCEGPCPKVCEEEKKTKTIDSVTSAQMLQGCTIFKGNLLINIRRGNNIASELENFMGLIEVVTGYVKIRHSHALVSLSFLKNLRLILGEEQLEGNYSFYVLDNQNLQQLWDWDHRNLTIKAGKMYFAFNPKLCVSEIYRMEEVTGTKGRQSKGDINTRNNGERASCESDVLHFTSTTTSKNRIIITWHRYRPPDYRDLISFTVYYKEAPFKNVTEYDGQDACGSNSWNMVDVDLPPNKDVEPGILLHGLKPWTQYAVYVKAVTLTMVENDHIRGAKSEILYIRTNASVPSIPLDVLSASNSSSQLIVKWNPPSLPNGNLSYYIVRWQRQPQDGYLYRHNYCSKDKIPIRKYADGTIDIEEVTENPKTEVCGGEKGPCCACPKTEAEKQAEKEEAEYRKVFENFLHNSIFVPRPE
Sequence of Insulin-like growth factor 1 receptor (Homo sapiens) (P08069 741-1367 limits assumed): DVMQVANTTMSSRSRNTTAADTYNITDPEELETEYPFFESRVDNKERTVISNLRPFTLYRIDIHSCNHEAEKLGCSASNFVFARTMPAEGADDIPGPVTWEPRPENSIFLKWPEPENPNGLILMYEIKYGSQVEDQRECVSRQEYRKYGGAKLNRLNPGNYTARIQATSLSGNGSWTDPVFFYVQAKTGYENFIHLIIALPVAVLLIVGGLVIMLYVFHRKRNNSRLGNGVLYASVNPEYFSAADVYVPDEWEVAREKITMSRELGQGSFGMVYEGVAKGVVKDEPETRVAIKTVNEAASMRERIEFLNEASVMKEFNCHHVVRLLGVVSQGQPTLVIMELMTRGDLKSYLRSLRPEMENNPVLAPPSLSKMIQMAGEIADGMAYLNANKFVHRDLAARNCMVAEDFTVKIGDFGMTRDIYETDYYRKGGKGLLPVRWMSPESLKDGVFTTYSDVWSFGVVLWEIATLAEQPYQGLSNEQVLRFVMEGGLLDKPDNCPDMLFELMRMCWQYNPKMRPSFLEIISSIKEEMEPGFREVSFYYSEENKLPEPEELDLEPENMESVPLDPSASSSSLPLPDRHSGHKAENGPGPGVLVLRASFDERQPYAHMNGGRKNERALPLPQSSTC

SMILES: Cc1c[nH]c2nccc(Oc3c(F)cc(Nc4cc(Cl)nc(N)n4)cc3F)c12 [BAY-549]
- pIC50 (SK-MEL-5; Homo sapiens, SK-MEL-5): 4.80
- TGI (SK-MEL-5; Homo sapiens, SK-MEL-5): 50 µM
- CC50 (SK-MEL-5; Homo sapiens, SK-MEL-5, read-out: LC50 (the source's name)): > 100 µM
- Mean % growth (n = 2) for 100.0 µM probe concentration (SK-MEL-5; ± SEM 1 % growth): -32%
- Mean % growth (n = 2) for 0.01 µM probe concentration (SK-MEL-5; ± SEM 3 % growth): 106%
- Mean % growth (n = 2) for 1.0 µM probe concentration (SK-MEL-5; ± SEM 3 % growth): 98%
- Mean % growth (n = 2) for 10.0 µM probe concentration (SK-MEL-5; ± SEM 6 % growth): 65%
- Mean % growth (n = 2) for 0.1 µM probe concentration (SK-MEL-5; ± SEM 8 % growth): 89%
- inhibition [1]: -8%
- inhibition [2]: 12%
- inhibition [3]: 40%
- inhibition [4]: 18%
- inhibition [5]: 41%
- pIC50 (SK-N-MC; Homo sapiens, SK-N-MC): 5.10
- TGI (SK-N-MC; Homo sapiens, SK-N-MC): 20 µM
- CC50 (SK-N-MC; Homo sapiens, SK-N-MC, read-out: LC50 (the source's name)): 52 µM
- Mean % growth (n = 2) for 10.0 µM probe concentration (SK-N-MC; ± SEM 3 % growth): 38%
- Mean % growth (n = 2) for 0.1 µM probe concentration (SK-N-MC; ± SEM 4 % growth): 103%
- Mean % growth (n = 2) for 1.0 µM probe concentration (SK-N-MC; ± SEM 5 % growth): 98%
- Mean % growth (n = 2) for 0.01 µM probe concentration (SK-N-MC; ± SEM 6 % growth): 103%
- Mean % growth (n = 2) for 100.0 µM probe concentration (SK-N-MC; ± SEM 8 % growth): -72%
- inhibition [6]: 31.9%
- inhibition [7]: 99%
- inhibition [8]: -8%
- inhibition [9]: 77%

SMILES: Cn1cc(Cl)c2c(Oc3c(F)cc(Nc4cc(Cl)nc(N)n4)cc3F)ccnc21 [BAY-4900]
- residual activity [10]: 100%
- residual activity [11]: 94%

From ChEMBL document CHEMBL4507274 (2021)
